From patent US20250154105A1, “POLYCYCLIC COMPOUND AND USE THEREOF” (TYK MEDICINES, INC., priority 2021, published 2025)

Legend:
[1] = test system: human pleural mesothelioma cells NCI-H226; assay: Cell anti-proliferation experiment (CCK8), NCI-H226; assay type: cell-based
How it was run: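 Viability was measured by CCK-8 (3 h, A450) after 3-day treatment with 0.15–333.33 nM compound in 0.1% DMSO medium. Curve-fitted IC50 was based on viability normalised to no-drug and cell-free controls.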

YAP-TEAD = YAP-TEAD inhibitor activity by Nano luciferase method (8xGTiiC-nLuc reporter in 293T cells); assay type: cell-based; settings: Homo sapiens, HEK-293T, 48 hours incubation, read-out: Nano-luciferase detection (IC50)
How it was run: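 293T cells transiently transfected with pGL3B-8xGTiiC-nLuc-CMV-fLuc, seeded 2000 cells/well, then treated 48 h at 37 °C with compounds in 1:3.16 dilution series (top 10,000 nM). Nano luciferase signal read after cell lysis; IC50 from percent of 0 nM control.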

IC50 [1]	IC50 (YAP-TEAD)	Structure (SMILES)
1 to 5 µM	1 to 5 µM	C[C@@H](NC(=O)c1ccc2c(c1)c1nn(C)cc1c(=O)n2-c1ccc(C(F)(F)F)cc1)c1ncccc1F [Example T-125]
≤ 1 µM	≤ 1 µM	C[C@H](NC(=O)c1ccc2c(c1)c1nn(C)cc1c(=O)n2Cc1ccc(C(F)(F)F)cc1)c1ccccn1 [Example T-270]
≤ 1 µM	≤ 1 µM	C[C@H](NC(=O)c1ccc2c(c1)c1ccccc1c(=O)n2-c1ccc(C(F)(F)F)cn1)c1ccccn1 [Example T-248]
≤ 1 µM	≤ 1 µM	C[C@H](NC(=O)c1ccc2c(c1)c1ccnnc1c(=O)n2-c1ccc(C(F)(F)F)cc1)c1ccccn1 [Example T-336]
≤ 1 µM	≤ 1 µM	C[C@H](NC(=O)c1ccc2c(c1)c1nn(C)cc1c(=O)n2-c1ccc(C(F)(F)F)cc1)c1ncccc1F [Example T-126]
≤ 1 µM	≤ 1 µM	Cc1cc(=O)n(-c2ccc(C(F)(F)F)cc2)c2ncc(C(=O)N[C@@H](C)c3cccc(N)n3)cc12 [Example T-457]
≤ 1 µM	≤ 1 µM	CNS(=O)(=O)c1ccc2c(c1)c1ncn(C)c1c(=O)n2-c1ccc(C(F)(F)F)cc1 [Example T-15]
≤ 1 µM	≤ 1 µM	CNS(=O)(=O)c1ccc2c(c1)c1cscc1c(=O)n2-c1ccc(C(F)(F)F)cc1 [Example T-265]
≤ 1 µM	≤ 1 µM	C[C@H](NC(=O)c1ccc2c(c1)c1c(c(=O)n2-c2ccc(C(F)(F)F)cc2)CCCC1(F)F)c1ccccn1 [Example T-306]
≤ 1 µM	≤ 1 µM	Cc1ccc2c(=O)n(-c3ccc(C(F)(F)F)cc3)c3ncc(C(=O)N[C@@H](C)c4ccccn4)cc3c2c1 [Example T-408]
1 to 5 µM	1 to 5 µM	COC(=O)c1ccc2c(c1)c1nn(C)cc1c(=O)n2-c1ccc(C(F)(F)F)cc1 [Example T-100]
≤ 1 µM	≤ 1 µM	CC(C)NC(=O)c1ccc2c(c1)c(=O)ccn2-c1ccc(C(F)(F)F)cc1 [Example T-6]
1 to 5 µM	1 to 5 µM	C[C@@H](NC(=O)c1ccc2c(c1)c1nn(C)cc1c(=O)n2-c1ccc(C(F)(F)F)cc1)c1ccc(F)cn1 [Example T-127]
≤ 1 µM	≤ 1 µM	C[C@H](NC(=O)c1ccc2c(c1)c1csc(Cl)c1c(=O)n2-c1ccc(C(F)(F)F)cc1)c1ccccn1 [Example T-300]
≤ 1 µM	≤ 1 µM	Cn1cc2c(=O)n(-c3ccc(C(F)(F)F)cc3)c3ccc(NC(=O)N4CCCCC4)cc3c2n1 [Example T-185]
≤ 1 µM	≤ 1 µM	C[C@H](NC(=O)c1ccc2c(c1)c1c(c(=O)n2-c2ccc(C(F)(F)F)cc2)CC(F)C1)c1ccccn1 (some centres unmarked) [Example T-291]
≤ 1 µM	≤ 1 µM	Cc1occ2c(=O)n(-c3ccc(C(F)(F)F)cc3)c3ncc(C(=O)N[C@@H](C)c4ccccn4)cc3c12 [Example T-375]
≤ 1 µM	≤ 1 µM	C=CC(=O)Nc1cnc2c(c1)c1cscc1c(=O)n2-c1ccc(C(F)(F)F)cc1 [Example T-240]
1 to 5 µM	1 to 5 µM	Cn1cc2c(=O)n(-c3ccc(C(F)(F)F)cc3)c3ccc(C(=O)NCc4ncccn4)cc3c2n1 [Example T-139]
≤ 1 µM	≤ 1 µM	CNC(=O)c1ccc2c(c1)c1nn(C)cc1c(=O)n2-c1ccc(C(F)(F)F)cc1 [Example T-111]

IC50 [1]	IC50 (YAP-TEAD)	Structure (SMILES)
1 to 5 µM	1 to 5 µM	Cn1cc2c(=O)n(-c3ccc(C(F)(F)F)cc3)c3ccc(C(=O)Nc4c[nH]cn4)cc3c2n1 [Example T-121]
≤ 1 µM	≤ 1 µM	CC(C)OC(=O)Nc1ccc2c(c1)c1nn(C)cc1c(=O)n2-c1ccc(C(F)(F)F)cc1 [Example T-194]
≤ 1 µM	≤ 1 µM	C[C@H](NC(=O)c1ccc2c(n1)c1cocc1c(=O)n2-c1ccc(C(F)(F)F)cc1)c1ccccn1 [Example T-389]
≤ 1 µM	≤ 1 µM	CNS(=O)(=O)c1ccc2c(c1)c1nn(C)cc1c(=O)n2-c1cc(F)cc(F)c1 [Example T-322]
≤ 1 µM	≤ 1 µM	C[C@H](NC(=O)c1ccc2c(c1)c1c(c(=O)n2C2CCC(F)(F)CC2)CCCC1)c1ccccn1 [Example T-267]
≤ 1 µM	≤ 1 µM	C[C@H](NC(=O)c1ccc2c(c1)c1c(c(=O)n2-c2ccc(C(F)(F)F)cc2)C(F)(F)CC1)c1ccccn1 [Example T-295]
1 to 5 µM	1 to 5 µM	Cn1cc2c(=O)n(-c3ccc(C(F)(F)F)cc3)c3ccc(NC(=O)CCCCl)cc3c2n1 [Example T-173]
≤ 1 µM	≤ 1 µM	C[C@H](NC(=O)c1ccc2c(c1)c1c(F)cccc1c(=O)n2-c1ccc(C(F)(F)F)cc1)c1ccccn1 [Example T-258]
1 to 5 µM	1 to 5 µM	C[C@@H](C(=O)Nc1ccc2c(c1)c1nn(C)cc1c(=O)n2-c1ccc(C(F)(F)F)cc1)c1ccccn1 [Example T-168]
1 to 5 µM	1 to 5 µM	CNS(=O)(=O)c1ccc2c(c1)c1ccccc1c(=O)n2-c1ccc(C(F)(F)F)cc1 [Example T-199]
≤ 1 µM	≤ 1 µM	CNS(=O)(=O)c1ccc2c(c1)-c1ncn(CCOC)c1CN2c1ccc(C(F)(F)F)cc1 [Example T-39]
≤ 1 µM	≤ 1 µM	COC(=O)Nc1ccc2c(c1)c1nn(C)cc1c(=O)n2-c1ccc(C(F)(F)F)cc1 [Example T-180]
≤ 1 µM	≤ 1 µM	C[C@H](NC(=O)c1ccc2c(c1)c1ocnc1c(=O)n2-c1ccc(C(F)(F)F)cc1)c1ccccn1 [Example T-391]
≤ 1 µM	≤ 1 µM	C[C@H](NC(=O)c1ccc2c(c1)c1c(C#N)cccc1c(=O)n2-c1ccc(C(F)(F)F)cc1)c1ccccn1 [Example T-318]
≤ 1 µM	≤ 1 µM	C[C@H](NC(=O)c1ccc2c(n1)c1c(Cl)scc1c(=O)n2-c1ccc(C(F)(F)F)cc1)c1ccccn1 [Example T-387]
≤ 1 µM	≤ 1 µM	CNS(=O)(=O)c1ccc2c(c1)c1cn(C)nc1c(=O)n2-c1ccc(F)c(F)c1 [Example T-66]
≤ 1 µM	≤ 1 µM	Cc1cc2c(=O)n(-c3ccc(C(F)(F)F)cc3)c3ncc(C(=O)N[C@@H](C)c4ccccn4)cc3c2s1 [Example T-404]
1 to 5 µM	1 to 5 µM	C[C@H](NC(=O)c1ccc2c(c1)c1nn(C)cc1c(=O)n2-c1ccc(C(F)(F)F)cc1)c1ccc(C(F)(F)F)cn1 [Example T-123]
1 to 5 µM	1 to 5 µM	C[C@H](NC(=O)c1ccc2c(c1)c1c(c(=O)n2-c2ccc(C(F)(F)F)cc2)CN(Cc2ccccc2)C1)c1ccccn1 [Example T-251]
≤ 1 µM	≤ 1 µM	C[C@H](NC(=O)c1ccc2c(c1)c1cc(C#N)ccc1c(=O)n2-c1ccc(C(F)(F)F)cc1)c1ccccn1 [Example T-319]

IC50 [1]	IC50 (YAP-TEAD)	Structure (SMILES)
1 to 5 µM	1 to 5 µM	CNC[C@H](C)NC(=O)c1ccc2c(c1)c1nn(C)cc1c(=O)n2-c1ccc(C(F)(F)F)cc1 [Example T-120]
≤ 1 µM	≤ 1 µM	C[C@H](NC(=O)c1ccc2c(c1)c1nn(C)cc1c(=O)n2-c1ccc(C(F)(F)F)cc1)c1cccc(N(C)C)n1 [Example T-150]
≤ 1 µM	≤ 1 µM	CNS(=O)(=O)c1ccc2c(c1)c1nc[nH]c1c(=O)n2-c1ccc(C(F)(F)F)cc1 [Example T-33]
≤ 1 µM	≤ 1 µM	CN[S+]([O-])c1ccc2c(c1)c1ncn(CCOC)c1c(=O)n2-c1ccc(C(F)(F)F)cc1 (centres unmarked) [Example T-47]
≤ 1 µM	≤ 1 µM	C[C@@H]1CCc2c1c(=O)n(-c1ccc(C(F)(F)F)cc1)c1ccc(C(=O)N[C@@H](C)c3ccccn3)cc21 [Example T-446]
≤ 1 µM	≤ 1 µM	C=CC(=O)Nc1ccc2c(c1)c(C)cc(=O)n2-c1ccc(C(F)(F)F)cc1 [Example T-280]
≤ 1 µM	≤ 1 µM	Cn1cc2c(=O)n(-c3ccc(C(F)(F)F)cc3)c3ccc(NC(=O)N4CCCC4)cc3c2n1 [Example T-184]
≤ 1 µM	≤ 1 µM	Cn1cc2c(=O)n(-c3ccc(C(F)(F)F)cc3)c3ccc(NC(=O)c4ccccc4)cc3c2n1 [Example T-171]
≤ 1 µM	≤ 1 µM	CNS(=O)(=O)c1ccc2c(c1)c1nn(C)cc1c(=O)n2-c1ccc(F)cc1 [Example T-65]
1 to 5 µM	≤ 1 µM	C[C@H](NC(=O)c1ccc2c(c1)c(=O)ccn2-c1ccc(C(F)(F)F)cc1)c1ccccn1 [Example T-17]
≤ 1 µM	≤ 1 µM	CNS(=O)(=O)c1ccc2c(c1)-c1nn(C)cc1CCN2c1ccc(C(F)(F)F)cc1 [Example T-54]
≤ 1 µM	≤ 1 µM	Cc1scc2c1c(=O)n(-c1ccc(C(F)(F)F)cc1)c1ccc(C(=O)N[C@@H](C)c3ccccn3)cc21 [Example T-297]
≤ 1 µM	≤ 1 µM	Cn1cc2c(=O)n(-c3ccc(C(F)(F)F)cc3)c3ccc(C(=O)NC4CC4)cc3c2n1 [Example T-102]
≤ 1 µM	≤ 1 µM	C[C@H](NC(=O)c1ccc2c(c1)c1c(F)scc1c(=O)n2-c1ccc(C(F)(F)F)cc1)c1ccccn1 [Example T-298]
1 to 5 µM	1 to 5 µM	C[C@@H](NC(=O)c1ccc2c(ccc(=O)n2-c2ccc(C(F)(F)F)cc2)c1)c1ccccn1 [Example T-24]
≤ 1 µM	≤ 1 µM	C[C@H](NC(=O)c1ccc2c(c1)c1ccc(C#N)cc1c(=O)n2-c1ccc(C(F)(F)F)cc1)c1ccccn1 [Example T-320]
≤ 1 µM	≤ 1 µM	CNS(=O)(=O)c1ccc2c(c1)c1nn(C)cc1c(=O)n2-c1ccccc1 [Example T-61]
≤ 1 µM	≤ 1 µM	Cn1cc2c(=O)n(-c3ccc(C(F)(F)F)cc3)c3ccc(NS(=O)(=O)C(F)(F)F)cc3c2n1 [Example T-191]
